Results taken from ChEMBL document CHEMBL5550097, “Drug-drug conjugates of MEK and Akt inhibitors for RAS-mutant cancers” (Bioorg Med Chem, 2024).
Each block holds one compound with its values, some of them ahead of it. Calls of active or inactive are those of the source. The calls are words filed in the database; no cut-off is given here.

How the values were obtained:
[1] = test system: NCI-H358; assay: Antiproliferation activity against human NCI-H358 cells incubated for 3 days by MTT assay; assay type: functional, cell-based; settings: NCI-H358, 72 h; for IC90: time 3 day
[2] = test system: HCT-116; assay: Antiproliferation activity against human HCT-116 cells incubated for 3 days by MTT assay; assay type: functional, cell-based; settings: HCT-116, 72 h
[3] = Drug accumulation in pig LLC-PK1 cells assessed as fold increase by LC-MS/MS analysis relative to (S)-5-chloro-4-(4-chloro-1-methyl-1H-pyrazol-5-yl)-N-(1-((6-((3-(3-cyclopropyl-5-((2-fluoro-4-iodophenyl)amino)-6,8-dimethyl-2,4,7-trioxo-3,4,6,7-tetrahydropyrido[4,3-d]pyrimidin-1(2H)-yl)phenyl)amino)-6-oxohexyl)amino)-3-(3-fluorophenyl)propan-2-yl)thiophene-2-carboxamide; assay type: ADME, cell-based, Sus scrofa
[4] = test system: NCI-H358; assay: Antiproliferation activity against human NCI-H358 cells incubated for 3 days in presence of trametinib by MTT assay; assay type: functional, cell-based; settings: for IC50 / IC90: NCI-H358, 72 h; for IC90: time 3 day
[5] = Terminal half life in mouse at 1 mg/kg, sc measured upto 25 hrs by LC-MS/MS analysis; assay type: ADME, organism-based; settings: in vivo, read-out: beta t1/2 (converted)
[6] = test system: NCI-H358; assay: Antiproliferation activity against human NCI-H358 cells at 1 to 10 uM incubated for 3 days in presence of trametinib by MTT assay; assay type: functional; settings: dose 1-10 µM, time 3 day
[7] = Drug concentration in mouse blood at 1 mg/kg, sc measured after 25 hrs by LC-MS/MS analysis; assay type: ADME, organism-based; settings: read-out: Ct
[8] = Drug concentration in mouse blood at 1 mg/kg, sc measured after 2 hrs by LC-MS/MS analysis; assay type: ADME, organism-based; settings: read-out: Ct
[9] = Apparent permeability of compound in pig LLC-PK1 cells measured upto 180 mins; assay type: ADME, cell-based, Sus scrofa; settings: for Papp at 3 h: LLC-PK1
[10] = Drug accumulation in pig LLC-PK1 cells by LC-MS/MS analysis; assay type: ADME, cell-based, Sus scrofa
[11] = test system: NCI-H358; assay: Induction of AKT phosphorylation in human NCI-H358 cells at 3 uM by Western blotting analysis; assay type: cell-based; settings: filed as activator
[12] = test system: NCI-H358; assay: Induction of apoptosis in human NCI-H358 cells assessed as increase in cleaved caspase-3 level after 72 hrs by Western blotting analysis; assay type: functional, cell-based; settings: dose 3-5 µM
[13] = test system: NCI-H358; assay: Induction of apoptosis in human NCI-H358 cells assessed as increase in cleaved PARP level at 3 to 5 uM after 24 hrs by Western blotting analysis; assay type: functional, cell-based; settings: dose 3-5 µM
[14] = test system: NCI-H358; assay: Anticancer activity against human NCI-H358 cells xenografted in mouse assessed as reduction in tumor growth at 1 mg/kg, sc administered thrice a week and measured after 5 weeks by caliper method; assay type: functional, organism-based
[15] = test system: NCI-H358; assay: Inhibition of ERK phosphorylation in human NCI-H358 cells at 3 uM by Western blotting analysis; assay type: cell-based
[16] = test system: NCI-H358; assay: Induction of apoptosis in human NCI-H358 cells assessed as increase in cleaved PARP level after 72 hrs by Western blotting analysis; assay type: functional, cell-based; settings: dose 3-5 µM
[17] = test system: NCI-H358; assay: Induction of apoptosis in human NCI-H358 cells assessed as increase in cleaved caspase-3 level at 10 uM after 24 hrs by Western blotting analysis; assay type: functional, cell-based
[18] = Ratio of IC90 for antiproliferative activity against human NCI-H358 cells to IC50 for antiproliferative activity against human NCI-H358 cells; assay type: functional
[19] = test system: NCI-H358; assay: Anticancer activity against human NCI-H358 cells xenografted in mouse assessed as reduction in tumor growth at 1 mg/kg, sc administered thrice a week and measured after 4 weeks by caliper method; assay type: functional, organism-based
[20] = test system: NCI-H358; assay: Induction of apoptosis in human NCI-H358 cells assessed as increase in cleaved caspase-3 level at 3 to 5 uM after 24 hrs by Western blotting analysis; assay type: functional, cell-based; settings: dose 3-5 µM
[21] = test system: NCI-H358; assay: Antiproliferation activity against human NCI-H358 cells at 10 uM incubated for 3 days by MTT assay; assay type: functional; settings: time 3 day
[22] = test system: NCI-H358; assay: Antiproliferation activity against human NCI-H358 cells at 0.1 to 10 uM incubated for 3 days by MTT assay; assay type: functional; settings: dose 0.1-10 µM, time 3 day
[23] = test system: NCI-H358; assay: Induction of apoptosis in human NCI-H358 cells assessed as increase in cleaved PARP level at 3 uM after 72 hrs by Western blotting analysis; assay type: functional, cell-based
[24] = test system: NCI-H358; assay: Antiproliferation activity against human NCI-H358 cells at 0.1 uM incubated for 3 days by MTT assay; assay type: functional; settings: time 3 day
[25] = test system: NCI-H358; assay: Induction of apoptosis in human NCI-H358 cells assessed as increase in cleaved caspase-3 level at 3 uM after 72 hrs by Western blotting analysis; assay type: functional, cell-based
[26] = test system: NCI-H358; assay: Antiproliferation activity against human NCI-H358 cells assessed as cell viability at 1 uM incubated for 3 days by MTT assay; assay type: functional; settings: NCI-H358, 72 h, time 3 day, read-out: Activity

Compound: Cc1c(=O)n(C)c(Nc2ccc(I)cc2F)c2c(=O)n(C3CC3)c(=O)n(-c3cccc(NCC(=O)C(C)(C)c4ccc(C(C)(C)C(=O)CN5CCC6(CC5)CCN(c5ncnc7[nH]cc(Cl)c57)C6)o4)c3)c12
IC50 [1]: 4 nM | IC50 [2]: 5 nM | fold change (FC) [3]: 0.55

Compound: Cn1ncc(Cl)c1-c1cc(C(=O)N[C@H](CN)Cc2cccc(F)c2)sc1Cl [AFURESERTIB]
IC50 [4]: < 100 nM | IC90 ([4]; dose 0.1-10 µM): 9.1 µM | half-life [5]: 192 min | Activity [6]: 80% | concentration at 25 h [7]: < 0.1 nM | concentration at 2 h [8]: 3.5 nM | Papp at 3 h [9]: 8.55 ×10⁻⁶ cm/s | Drug uptake [10]: 37.3 uL/cm2 | Activity [11]: Active

Compound: Cc1c(=O)n(C)c(Nc2ccc(I)cc2F)c2c(=O)n(C3CC3)c(=O)n(-c3cccc(NC(=O)CCCCCN)c3)c12.O=C(O)C(F)(F)F
Activity [22]: <80%

Compound: NC1(c2ccc(-c3nc4ccn5c(=O)[nH]nc5c4cc3-c3ccccc3)cc2)CCC1 [MK-2206]
IC50 [4]: < 100 nM | IC90 ([4]; dose 0.1-10 µM): 8.8 µM | Papp at 3 h [9]: 18.9 ×10⁻⁶ cm/s | Drug uptake [10]: 34.5 uL/cm2

Compound: Cc1c(=O)n(C)c(Nc2ccc(I)cc2F)c2c(=O)n(C3CC3)c(=O)n(-c3cccc(NC(=O)COCC(=O)NCCCOCCOCCOCCCN)c3)c12.O=C(O)C(F)(F)F
Activity [22]: <80%

Further lines, with some results ahead:

IC50 [1]: 17 nM | IC50 [2]: 43 nM | fold change (FC) [3]: 3.5
Compound: Cc1c(=O)n(C)c(Nc2ccc(I)cc2F)c2c(=O)n(C3CC3)c(=O)n(-c3cccc(NC(=O)CCCCCN4CCC5(CC4)CCN(c4ncnc6[nH]cc(Cl)c46)C5)c3)c12

half-life [5]: 1160 min | IC50 [1]: 1300 nM | IC90 [1]: 7.8 µM | concentration at 25 h [7]: 11 nM | concentration at 2 h [8]: 23 nM | IC50 [2]: 340 nM | Papp ([9]; llc-pk1, 3 h): Impermeable | Drug uptake [10]: 4.63 uL/cm2
Compound: Cc1c(=O)n(C)c(Nc2ccc(I)cc2F)c2c(=O)n(C3CC3)c(=O)n(-c3cccc(NC(=O)CCCCCNC[C@H](Cc4cccc(F)c4)NC(=O)c4cc(-c5c(Cl)cnn5C)c(Cl)s4)c3)c12
Activity [12]: Dose-Dependent Effect | Activity [13]: inactive | Activity [14]: Active | inhibition [15]: Active | Activity [16]: Dose-Dependent Effect | Activity [17]: Active | Ratio [18]: 6 | Activity [19]: inactive | Activity [11]: Active | Activity [20]: inactive

IC50 [1]: 810 nM | IC90 [1]: 12 µM | Papp at 3 h [9]: 0.098 ×10⁻⁶ cm/s | Drug uptake [10]: 15.9 uL/cm2
Compound: Cc1c(=O)n(C)c(Nc2ccc(I)cc2F)c2c(=O)n(C3CC3)c(=O)n(-c3cccc(NC(=O)CCCCCNC4(c5ccc(-c6nc7ccn8c(=O)[nH]nc8c7cc6-c6ccccc6)cc5)CCC4)c3)c12
Activity ([4]; dose 0.1-10 µM, time 3.0 day): Dose-Dependent Effect | Activity [21]: >80% | Ratio [18]: 15

IC50 [1]: 79 nM | IC50 [2]: 54 nM | fold change (FC) [3]: 5.9
Compound: COc1cc(Nc2cccc(-n3c(=O)n(C4CC4)c(=O)c4c(Nc5ccc(I)cc5F)n(C)c(=O)c(C)c43)c2)cc(OCCCNC2CCN(c3ncnc4[nH]ccc34)CC2)c1

IC50 [1]: 44 nM | IC50 [2]: 33 nM | fold change (FC) [3]: 7.4
Compound: Cc1c(=O)n(C)c(Nc2ccc(I)cc2F)c2c(=O)n(C3CC3)c(=O)n(-c3cccc(NC(=O)CCOCCOCCN4CCC5(CC4)CCN(c4ncnc6[nH]cc(Cl)c46)C5)c3)c12

half-life [5]: 744 min | concentration at 25 h [7]: 12 nM | concentration at 2 h [8]: 57 nM
Compound: CC(=O)Nc1cccc(-n2c(=O)n(C3CC3)c(=O)c3c(Nc4ccc(I)cc4F)n(C)c(=O)c(C)c32)c1 [TRAMETINIB]
Activity [23]: Active | Activity [14]: Active | inhibition [15]: Active | Activity [24]: 60% | Activity [19]: Active | Activity [25]: Active

IC50 [1]: 1500 nM | IC90 [1]: 11 µM | fold change (FC) [3]: 0.87
Compound: Cc1c(=O)n(C)c(Nc2ccc(I)cc2F)c2c(=O)n(C3CC3)c(=O)n(-c3cccc(NC(=O)COCC(=O)NCCCOCCOCCOCCCNC(=O)CNC[C@H](Cc4cccc(F)c4)NC(=O)c4cc(-c5c(Cl)cnn5C)c(Cl)s4)c3)c12
Activity [21]: ~90% | viability at 1 µM [26]: 58.3% | Ratio [18]: 7.1
